Results on one compound are retold here after patent publication US7229630B2, “Stabilized formulations of alpha adrenergic receptor antagonists and the uses thereof” (Novalar Pharmaceuticals, Inc., priority 2002, dated 2007).

Counter-ions that a name gives are not always drawn.

In this data set the test system is healthy adult volunteers. The experiment in a line: Reversal of soft-tissue anesthesia after inferior alveolar nerve block, proof-of-principle trial. It is filed as in vivo, human. The conditions noted are these: 0.2 mg in 1.8 ml. As to the method:
The objective of this proof-of-principle trial was to evaluate the feasibility of reversing soft-tissue anesthesia by pharmacologically blocking the effects of epinephrine. […] Subjects self-evaluated the return of normal sensation in their lip, chin, tongue, nose, and teeth by palpations at 5-minute intervals starting at 5 minutes before the study drug injection and continuing for approximately 4–5 hours. To avoid biased responding, subjects were told that they could not leave the clinic for 8 hours after the last injection. Responses for soft tissues were categorized as (1) numb (no feeling), (2) feeling of pins and needles, or (3) normal sensation. Responses for teeth were (1) numb (no feeling) or (2) normal sensation. Safety was evaluated through reports of adverse events, measurement of vital signs and two-lead electrocardiograms before, during, and after the injections of anesthetic and study drug, and through pain assessments using visual analog scales.

`Cc1ccc(N(CC2=NCCN2)c2cccc(O)c2)cc1` [Phentolamine Mesylate, phentolamine mesylate]: the electrocardiogram result was “no abnormalities”. The duration of anesthesia entry (60 minutes after 2% lidocaine with 1:100,000 epinephrine, vs saline, each tissue) is on record as “significantly (p<0.01) reduced”. In addition, the Adverse effects result (vs placebo) was “few and no differences were noted between the active and placebo groups”.
